Key:
[1] = tested on: HEC-1B xenograft tumor model; assay type: in vivo; details: 10 mg/kg Q14D i.p.
Procedure: The in vivo efficacy was evaluated in tumor xenograft models in nude mice with established human tumor cell lines at the MTD and sub-MTD dosages. Tumor cells were cultivated according to ATCC protocols in recommended media contained 10% FCS. Cells were harvested for transplantation in a subconfluent (70%) state. The volume of implantation was 100 μl for mice. When the tumors were approximately in size of 25-50 mm^2, the animals were randomized to treatment and control groups and treatment was started. Treatment of each animal was based on individual body weight. The optimal formulation, application route and schedule were used for each compound (see table 2). Oral administration (p.o.) was carried out via a gastric tube. The oral application volumes were 10 ml/kg and the intravenous application volumes were 10 ml/kg. Tumor area (product of the longest diameter and its perpendicular) using a calliper. The animal body weight was monitored as a measure for treatment-related toxicity. Measurement of tumor area and body weight was performed 2-3 times weekly. […] Treatment responses were evaluated by means of the clinically-used RECIST criteria (complete response, partial response, stable disease and progressive disease) and response rates were calculated accordingly (RR=number of animals with complete and partial response).

[2] = tested on: MFE-280 xenograft tumor model; assay: In vivo efficacy in MFE-280 xenograft tumor model; set-up: species or system nude mice; details: doxorubicin group
Procedure: The in vivo efficacy was evaluated in tumor xenograft models in nude mice with established human tumor cell lines at the MTD and sub-MTD dosages. Tumor cells were cultivated according to ATCC protocols in recommended media contained 10% FCS. Cells were harvested for transplantation in a subconfluent (70%) state. The volume of implantation was 100 μl for mice. When the tumors were approximately in size of 25-50 mm^2, the animals were randomized to treatment and control groups and treatment was started. Treatment of each animal was based on individual body weight. The optimal formulation, application route and schedule were used for each compound (see table 2). Oral administration (p.o.) was carried out via a gastric tube. The oral application volumes were 10 ml/kg and the intravenous application volumes were 10 ml/kg. Tumor area (product of the longest diameter and its perpendicular) using a calliper. The animal body weight was monitored as a measure for treatment-related toxicity. Measurement of tumor area and body weight was performed 2-3 times weekly. T/C ratios (Treatment/Control) were calculated with final tumor areas. Treatment responses were evaluated by means of the clinically-used RECIST criteria (complete response, partial response, stable disease and progressive disease) and response rates were calculated accordingly (RR=number of animals with complete and partial response).

[3] = dose not printed (i.p. Q14D per Table 2)

**Q.** With COc1cccc2c1C(=O)c1c(O)c3c(c(O)c1C2=O)C[C@@](O)(C(=O)CO)C[C@@H]3O[C@H]1C[C@H](N)[C@H](O)[C@H](C)O1 [Doxorubicin] as the molecule, how does the “PD (progressive disease, number of tumors)” value [1] read?
**A.** 6

**Q.** And the Response rate [1]?
**A.** 0%

**Q.** What about the “T/C area (Treatment/Control ratio, mean tumor areas)” value ([1]; study end) of the same molecule?
**A.** 0.56

**Q.** And the “T/C weight (Treatment/Control ratio, final tumor weights)” value ([1]; study end)?
**A.** 0.48

**Q.** And the “CR (%)” value ([2]; dose not given)?
**A.** 0%

**Q.** What about the “PD (%)” value ([2]; dose not given) of the same molecule?
**A.** 37.5%

**Q.** And the “PR (%)” value ([2]; dose not given)?
**A.** 12.5%

**Q.** And the “RR (%)” value ([2]; dose not given)?
**A.** 12.5%

**Q.** And the “T/C (tumor area)” value [2, 3]?
**A.** 0.51

**Q.** What about the “T/C (tumor weight)” value [2, 3] of the same molecule?
**A.** 0.39
